Assay results taken from ChEMBL document CHEMBL6071142, “Isoalantolactone/hydroxamic acid hybrids as potent dual STAT3/HDAC inhibitors and self-assembled nanoparticles for cancer therapy” (Eur J Med Chem, 2024).
Calls of active or inactive are those of the source. No cut-off for these calls is given here.

Key:
Histone deacetylase 1 = Histone deacetylase 1 (Homo sapiens, UniProt Q13547); assay: Inhibition of recombinant human HDAC1 using Boc-Lys (acetyl)-AMC as substrate preincubated with compound for 1 hr followed by substrate addition and measured after 30 mins by microplate reader assay
Histone deacetylase 2 = Histone deacetylase 2 (Homo sapiens, UniProt Q92769); assay: Inhibition of recombinant human HDAC2 using Boc-Lys (acetyl)-AMC as substrate preincubated with compound for 1 hr followed by substrate addition and measured after 30 mins by microplate reader assay
Histone deacetylase 3 = Histone deacetylase 3 (Homo sapiens, UniProt O15379); assay: Inhibition of recombinant human HDAC3 using Boc-Lys (acetyl)-AMC as substrate preincubated with compound for 1 hr followed by substrate addition and measured after 30 mins by microplate reader assay
Histone deacetylase 5 = Histone deacetylase 5 (Homo sapiens, UniProt Q9UQL6); assay: Inhibition of recombinant human HDAC5 using Boc-Lys (trifluroacetyl)-AMC as substrate preincubated with compound for 1 hr followed by substrate addition and measured after 30 mins by microplate reader assay
Histone deacetylase 9 = Histone deacetylase 9 (Homo sapiens, UniProt Q9UKV0); assay: Inhibition of recombinant human HDAC9 using Boc-Lys (trifluroacetyl)-AMC as substrate preincubated with compound for 1 hr followed by substrate addition and measured after 30 mins by microplate reader assay
[1] = biological target: T1, Signal transducer and activator of transcription 3 (Homo sapiens, UniProt P40763); assay: Binding affinity to STAT3 (unknown origin) assessed as dissociation constant by SPR assay
[2] = Binding affinity to STAT2 (unknown origin) assessed as dissociation constant by SPR assay; parameters: species or system Homo sapiens
[3] = biological target: Signal transducer and activator of transcription 5A (Homo sapiens, UniProt P42229); assay: Binding affinity to STAT5A (unknown origin) assessed as dissociation constant by SPR assay
[4] = biological target: Signal transducer and activator of transcription 5B (Homo sapiens, UniProt P51692); assay: Binding affinity to STAT5B (unknown origin) assessed as dissociation constant by SPR assay
[5] = biological target: Signal transducer and activator of transcription 6 (Homo sapiens, UniProt P42226); assay: Binding affinity to STAT6 (unknown origin) assessed as dissociation constant by SPR assay
[6] = biological target: T1, Signal transducer and activator of transcription 3; assay: Binding affinity to recombinant human STAT3 using 5-FAM-G(pTyr)LPQTV-NH2 as substrate preincubated with compound for 1 hr followed by substrate addition and measured after 30 mins by fluorescent polarization based binding assay
HepG2 = assay: Antiproliferative activity against human HepG2 cells assessed as inhibition of cell proliferation incubated for 72 hrs by CCK-8 assay; assay type: functional, cell-based; settings: HepG2, 72 h
[7] = biological target: Class 1 histone deacetylase (Homo sapiens) (UniProt Q13547+O15379+Q92769+Q9BY41); assay: Inhibition of class 1 HDAC in human A549 cells assessed as increase in […] at 0.5 uM incubated for 12 hrs by Western blot analysis; assay type: cell-based
[8] = biological target: Protein deacetylase HDAC6 (Homo sapiens) (UniProt Q9UBN7); assay: Inhibition of HDAC6 in human A549 cells assessed as increase in Ac-tubulin at 0.5 uM incubated for 12 hrs by Western blot analysis; assay type: cell-based
A549 [9] = assay: Induction of autophagy in human A549 cells transfected with mRFP-GFP-LC3 assessed as increase in LC3-II:LC3-I protein level at 0.5 uM by Western blot analysis; assay type: functional, cell-based; settings: time 0-72 hrs, TDE = time-dependent effect
A549 [10] = assay: Induction of autophagy in human A549 cells transfected with mRFP-GFP-LC3 at 0.5 uM incubated for 24 hrs by confocal microscopic analysis; assay type: functional, cell-based
A549 [11] = assay: Induction of apoptosis in human A549 cells assessed as viable cells at 4 uM incubated for 24 hrs by Annexin V-FITC/PI staining based flow cytometric analysis (reference value: 95.08%); assay type: functional; settings: read-out: Activity
A549 [12] = assay: Induction of apoptosis in human A549 cells assessed as early apoptotic cells at 4 uM incubated for 24 hrs by Annexin V-FITC/PI staining based flow cytometric analysis (reference value: 1.53%); assay type: functional
A549 [13] = assay: Induction of apoptosis in human A549 cells assessed as late apoptotic cells at 4 uM incubated for 24 hrs by Annexin V-FITC/PI staining based flow cytometric analysis (reference value: 2.18%); assay type: functional
A549 [14] = assay: Induction of apoptosis in human A549 cells assessed as necrotic cells at 4 uM incubated for 24 hrs by Annexin V-FITC/PI staining based flow cytometric analysis (reference value: 1.20%); assay type: functional
A549 [15] = assay: In vivo antitumor activity against human A549 cells xenografted in female BALB/c nu/nu mouse assessed as tumor volume at 2.5 mg/kg, iv administered every 3 days and measured on 18 day relative to control; assay type: functional; settings: time 3 day
[16] = Toxicity in female BALB/c nu/nu mouse xenografted with human A549 cells assessed as effect on lung at 5 mg/kg, iv by H and E staining based analysis; assay type: organism-based; settings: in vivo
[17] = Toxicity in female BALB/c nu/nu mouse xenografted with human A549 cells assessed as effect on heart at 2.5 mg/kg, iv by H and E staining based analysis; assay type: organism-based; settings: in vivo
[18] = Toxicity in female BALB/c nu/nu mouse xenografted with human A549 cells assessed as effect on heart at 5 mg/kg, iv by H and E staining based analysis; assay type: organism-based; settings: in vivo
A549 [19] = assay: Anticancer activity against human A549 cells assessed as cell viability incubated for 72 hrs using self assembled nanoparticle as source of compound by CCK-8 assay; assay type: functional, cell-based; settings: A549, 72 h
[20] = Drug uptake in tumor of nude mouse xenografted with A549 cells assessed as accumulation of tumor tissues at 5 mg/kg, iv using self assembled nanoparticle as source of compound by LC-MS/MS analysis; assay type: ADME, organism-based; settings: in vivo
[21] = Drug accumulation in nude mouse xenografted with A549 cells assessed as increase in fluorescence at 5 mg/kg, iv using chlorine e6 loaded self-assembled nanoparticle as source of compound incubated for 24 hrs by ex-vivo fluorescence based analysis; assay type: ADME, organism-based
[22] = Biodistribution in spleen of nude mouse xenografted with A549 cells at 5 mg/kg, iv using chlorine e6 loaded self-assembled nanoparticle as source of compound incubated for 24 hrs by ex-vivo fluorescence based LC-MS/MS analysis; assay type: ADME, organism-based
[23] = Biodistribution in lung of nude mouse xenografted with A549 cells at 5 mg/kg, iv using chlorine e6 loaded self-assembled nanoparticle as source of compound incubated for 24 hrs by ex-vivo fluorescence based LC-MS/MS analysis; assay type: ADME, organism-based
A549 [24] = assay: Induction of apoptosis in human A549 cells assessed as decrease in BCL-2 protein level at 6 uM incubated for 12 hrs by Western blot analysis
[25] = Drug accumulation in tumor of nude mouse xenografted with A549 cells assessed as increase in fluorescence at 5 mg/kg, iv using chlorine e6 loaded self assembled nanoparticle as source of compound by in vivo fluorescence imaging

T1 sequence (P40763 whole entry): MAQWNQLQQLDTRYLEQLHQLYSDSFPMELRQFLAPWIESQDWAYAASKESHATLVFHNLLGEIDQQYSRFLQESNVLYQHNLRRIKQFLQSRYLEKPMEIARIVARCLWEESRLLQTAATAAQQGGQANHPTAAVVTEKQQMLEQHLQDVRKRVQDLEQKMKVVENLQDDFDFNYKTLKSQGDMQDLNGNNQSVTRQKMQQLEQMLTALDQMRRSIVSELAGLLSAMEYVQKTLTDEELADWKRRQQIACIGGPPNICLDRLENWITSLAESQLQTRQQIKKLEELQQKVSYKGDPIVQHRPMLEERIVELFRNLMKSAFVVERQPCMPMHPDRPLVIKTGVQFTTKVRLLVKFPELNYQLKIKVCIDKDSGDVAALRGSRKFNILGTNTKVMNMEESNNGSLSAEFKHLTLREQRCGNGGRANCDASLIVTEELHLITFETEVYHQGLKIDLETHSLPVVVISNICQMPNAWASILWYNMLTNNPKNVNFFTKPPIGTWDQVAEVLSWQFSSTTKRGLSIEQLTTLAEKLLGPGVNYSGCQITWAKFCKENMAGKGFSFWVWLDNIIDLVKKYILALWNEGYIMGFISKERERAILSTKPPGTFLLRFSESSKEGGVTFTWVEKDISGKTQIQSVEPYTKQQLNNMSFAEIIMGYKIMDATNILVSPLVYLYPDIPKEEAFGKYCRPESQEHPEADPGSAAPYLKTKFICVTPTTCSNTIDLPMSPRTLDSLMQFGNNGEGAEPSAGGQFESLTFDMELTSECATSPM
Histone deacetylase 5, sequence (Q9UQL6 whole entry): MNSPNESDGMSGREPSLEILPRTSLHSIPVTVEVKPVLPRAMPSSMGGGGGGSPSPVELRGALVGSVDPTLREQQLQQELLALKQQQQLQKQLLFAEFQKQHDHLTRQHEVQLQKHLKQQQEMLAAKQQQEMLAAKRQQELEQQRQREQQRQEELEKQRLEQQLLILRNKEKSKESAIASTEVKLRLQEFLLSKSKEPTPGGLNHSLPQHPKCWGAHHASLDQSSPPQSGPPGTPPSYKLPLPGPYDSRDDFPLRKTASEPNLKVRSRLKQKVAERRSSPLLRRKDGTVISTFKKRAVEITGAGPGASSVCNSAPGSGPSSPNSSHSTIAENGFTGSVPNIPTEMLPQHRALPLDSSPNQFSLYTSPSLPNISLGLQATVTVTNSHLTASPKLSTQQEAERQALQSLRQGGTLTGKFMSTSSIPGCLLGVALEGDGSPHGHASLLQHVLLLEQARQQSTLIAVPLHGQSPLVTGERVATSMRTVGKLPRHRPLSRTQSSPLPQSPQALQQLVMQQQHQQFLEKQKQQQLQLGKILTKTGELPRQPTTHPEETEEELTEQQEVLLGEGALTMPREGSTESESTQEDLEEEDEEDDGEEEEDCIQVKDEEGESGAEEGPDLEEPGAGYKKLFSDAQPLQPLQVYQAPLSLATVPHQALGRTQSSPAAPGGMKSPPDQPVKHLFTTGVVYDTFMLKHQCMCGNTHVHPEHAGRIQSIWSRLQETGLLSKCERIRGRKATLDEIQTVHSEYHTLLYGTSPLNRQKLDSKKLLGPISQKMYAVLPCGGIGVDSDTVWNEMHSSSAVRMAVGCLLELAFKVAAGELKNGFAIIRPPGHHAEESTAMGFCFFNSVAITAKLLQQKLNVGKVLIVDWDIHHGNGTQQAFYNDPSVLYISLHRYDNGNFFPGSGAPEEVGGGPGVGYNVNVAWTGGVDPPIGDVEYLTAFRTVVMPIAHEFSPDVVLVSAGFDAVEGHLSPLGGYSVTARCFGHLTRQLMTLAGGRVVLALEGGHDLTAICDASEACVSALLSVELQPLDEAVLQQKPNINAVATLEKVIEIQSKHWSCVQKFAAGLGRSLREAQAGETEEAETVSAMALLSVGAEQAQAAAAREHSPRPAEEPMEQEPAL
Histone deacetylase 1, sequence (Q13547 whole entry): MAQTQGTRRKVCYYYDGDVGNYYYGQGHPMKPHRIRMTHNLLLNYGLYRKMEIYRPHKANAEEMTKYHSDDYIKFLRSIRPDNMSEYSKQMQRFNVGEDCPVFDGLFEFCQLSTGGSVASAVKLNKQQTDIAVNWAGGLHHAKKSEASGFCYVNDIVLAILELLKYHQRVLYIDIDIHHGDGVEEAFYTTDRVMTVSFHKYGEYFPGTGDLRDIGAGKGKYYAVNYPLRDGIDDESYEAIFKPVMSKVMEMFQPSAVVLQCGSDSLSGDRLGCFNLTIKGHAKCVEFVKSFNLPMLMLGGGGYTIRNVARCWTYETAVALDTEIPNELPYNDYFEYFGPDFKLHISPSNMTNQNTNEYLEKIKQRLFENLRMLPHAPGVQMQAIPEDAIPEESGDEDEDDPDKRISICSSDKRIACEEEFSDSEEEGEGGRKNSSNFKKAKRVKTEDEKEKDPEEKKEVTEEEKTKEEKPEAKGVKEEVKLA
Histone deacetylase 9, sequence (Q9UKV0 whole entry): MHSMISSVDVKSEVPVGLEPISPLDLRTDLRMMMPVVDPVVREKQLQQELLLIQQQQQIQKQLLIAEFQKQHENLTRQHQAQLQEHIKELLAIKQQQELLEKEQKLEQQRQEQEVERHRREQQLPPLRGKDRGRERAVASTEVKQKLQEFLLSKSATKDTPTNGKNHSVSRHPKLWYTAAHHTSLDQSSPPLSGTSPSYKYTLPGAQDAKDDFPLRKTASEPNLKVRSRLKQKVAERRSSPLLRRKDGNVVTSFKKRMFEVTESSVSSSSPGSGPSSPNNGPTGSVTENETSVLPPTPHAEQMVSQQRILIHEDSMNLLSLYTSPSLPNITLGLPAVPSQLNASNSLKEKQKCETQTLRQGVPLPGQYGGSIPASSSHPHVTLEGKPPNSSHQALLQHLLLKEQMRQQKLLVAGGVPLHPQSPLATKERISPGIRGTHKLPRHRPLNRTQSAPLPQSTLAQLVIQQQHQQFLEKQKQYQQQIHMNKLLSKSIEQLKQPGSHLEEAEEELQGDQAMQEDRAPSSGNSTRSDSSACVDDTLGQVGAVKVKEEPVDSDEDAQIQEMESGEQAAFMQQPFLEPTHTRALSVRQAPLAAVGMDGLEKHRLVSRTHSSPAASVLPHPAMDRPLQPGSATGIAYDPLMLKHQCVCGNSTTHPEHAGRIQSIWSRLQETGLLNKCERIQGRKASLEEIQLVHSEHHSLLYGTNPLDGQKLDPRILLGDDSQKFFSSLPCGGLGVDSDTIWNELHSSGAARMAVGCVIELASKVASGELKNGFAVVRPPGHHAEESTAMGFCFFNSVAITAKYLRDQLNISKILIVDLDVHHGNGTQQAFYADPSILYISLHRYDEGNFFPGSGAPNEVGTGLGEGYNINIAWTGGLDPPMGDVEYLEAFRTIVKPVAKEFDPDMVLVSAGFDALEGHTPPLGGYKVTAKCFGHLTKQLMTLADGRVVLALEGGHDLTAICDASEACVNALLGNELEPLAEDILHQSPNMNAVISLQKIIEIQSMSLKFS
Histone deacetylase 3, sequence (O15379 whole entry): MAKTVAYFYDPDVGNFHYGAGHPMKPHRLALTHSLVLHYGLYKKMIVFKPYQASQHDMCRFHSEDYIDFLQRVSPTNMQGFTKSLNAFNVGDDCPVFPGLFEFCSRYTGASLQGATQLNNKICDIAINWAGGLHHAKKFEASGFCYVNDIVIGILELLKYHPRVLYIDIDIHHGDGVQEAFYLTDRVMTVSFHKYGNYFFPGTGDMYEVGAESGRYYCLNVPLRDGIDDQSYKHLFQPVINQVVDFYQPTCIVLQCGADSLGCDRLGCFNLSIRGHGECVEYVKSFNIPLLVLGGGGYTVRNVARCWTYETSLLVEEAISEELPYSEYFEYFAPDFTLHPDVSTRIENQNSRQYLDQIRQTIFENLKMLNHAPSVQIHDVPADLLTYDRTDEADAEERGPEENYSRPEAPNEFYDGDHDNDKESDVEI
Class 1 histone deacetylase (Homo sapiens), sequence (O15379 whole entry, looked up): as the sequence (O15379 whole entry) above
Class 1 histone deacetylase (Homo sapiens), sequence (Q13547 whole entry, looked up): as the sequence (Q13547 whole entry) above
Class 1 histone deacetylase (Homo sapiens), sequence (Q92769 whole entry, looked up): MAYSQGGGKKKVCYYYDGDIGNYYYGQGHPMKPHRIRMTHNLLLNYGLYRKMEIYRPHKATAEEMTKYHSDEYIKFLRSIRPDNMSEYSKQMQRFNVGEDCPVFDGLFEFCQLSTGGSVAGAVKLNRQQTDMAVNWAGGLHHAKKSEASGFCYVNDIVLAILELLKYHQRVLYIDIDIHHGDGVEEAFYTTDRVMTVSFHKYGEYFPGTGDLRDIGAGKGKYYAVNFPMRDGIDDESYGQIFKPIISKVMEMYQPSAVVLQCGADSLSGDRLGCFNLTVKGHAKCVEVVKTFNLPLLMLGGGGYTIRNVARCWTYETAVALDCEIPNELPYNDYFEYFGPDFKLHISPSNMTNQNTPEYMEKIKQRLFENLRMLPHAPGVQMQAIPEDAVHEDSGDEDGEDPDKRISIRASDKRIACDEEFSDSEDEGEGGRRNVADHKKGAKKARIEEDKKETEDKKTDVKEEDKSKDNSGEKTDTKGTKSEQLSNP
Class 1 histone deacetylase (Homo sapiens), sequence (Q9BY41 whole entry, looked up): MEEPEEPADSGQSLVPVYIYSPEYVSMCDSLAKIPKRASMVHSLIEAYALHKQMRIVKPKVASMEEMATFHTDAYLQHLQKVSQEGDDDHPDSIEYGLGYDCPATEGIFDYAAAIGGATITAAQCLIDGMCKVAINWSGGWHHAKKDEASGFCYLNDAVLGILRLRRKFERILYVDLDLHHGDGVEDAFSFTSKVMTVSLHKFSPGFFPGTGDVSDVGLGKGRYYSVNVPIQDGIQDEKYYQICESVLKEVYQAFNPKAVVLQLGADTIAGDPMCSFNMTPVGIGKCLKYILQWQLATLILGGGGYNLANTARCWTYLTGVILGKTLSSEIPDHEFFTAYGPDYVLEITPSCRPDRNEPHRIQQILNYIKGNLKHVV
Histone deacetylase 2, sequence (Q92769 whole entry): as the sequence (Q92769 whole entry, looked up) above

`C=C1C(=O)O[C@@H]2C[C@@]3(C)CC[C@@H](OC(=O)[C@H](C)NC(=O)c4ccc(/C=C/C(=O)NO)cc4)C(=C)[C@@H]3C[C@H]12` gave an IC50 (Histone deacetylase 1) of 62 nM, an IC50 (Histone deacetylase 2) of 52.6 nM and an IC50 (Histone deacetylase 3) of 51.9 nM. For the same compound, the IC50 (Histone deacetylase 5) was over 10000 nM, the IC50 (Histone deacetylase 9) was over 10000 nM and the Kd [1] was 2520 nM. The Kd [2] was “Not Active”, the Kd [3] was “Not Active” and the Kd [4] was “Not Active”. For the same compound, the Kd [5] was “Not Active”, the IC50 [6] was 350 nM and the Activity ([6]; time 1.5 hrs) was “Dose-Dependent Effect”. The IC50 (HepG2) was 260 nM, the inhibition [7] was “Active” and the inhibition [8] was “Active”. The Activity (A549 [9]) was “Tde”, the Activity (A549 [10]) was “Active” and the viability at 4 µM (A549 [11]) was 56.2%. The Activity (A549 [12]) was 5.3%, the Activity (A549 [13]) was 35.53% and the Activity (A549 [14]) was 2.99%. For the same compound, the Activity (A549 [15]) was 70.7%, the Activity [16] was “Non-Toxic” and the Activity [17] was “Non-Toxic”. The Activity [18] was “Non-Toxic”, the IC50 (A549 [19]) was 69 nM and the Drug uptake [20] was “Active”. For the same compound, the Drug uptake [21] was “Active”, the Drug uptake [22] was “Active” and the Drug uptake [23] was “Active”. For the same compound, the Activity (A549 [24]) was “Active” and the Drug uptake [25] was “Active”.
